Source: PMC11121837, “Impact of Nitric Oxide-Release Kinetics on Antifungal Activity” (Journal of Fungi, 2024)
Converted amounts (≈) assume the structure as drawn.

Experiments:
[1] = Characterization of NO release (chemiluminescence nitric oxide analyzer); assay type: physicochemical
Candida albicans = assay: Susceptibility assay (MIC, broth microdilution, CLSI M27); assay type: cell-based; conditions: for MIC: 24 h; for NO dose at MIC: calculated NO dose at MIC
Candida auris = assay: as above; assay type: cell-based; conditions: for MIC / NO dose at MIC: Candidozyma auris; for MIC: 24 h; for NO dose at MIC: calculated NO dose at MIC
Cryptococcus neoformans = assay: as above; assay type: cell-based; conditions: for MIC / NO dose at MIC: Cryptococcus neoformans; for MIC: 72 h; for NO dose at MIC: calculated NO dose at MIC
[2] = test system: Aspergillus fumigatus spores; assay: Susceptibility assay for sporulating fungi (MIC, EUCAST E.Def.9.4); assay type: cell-based
[3] = test system: C. albicans (ATCC MYA-2876); assay: Checkerboard assay of NO donors with antifungals; assay type: cell-based, Candida albicans
C. auris (ATCC MYA-5001) = assay: Checkerboard assay of NO donors with antifungals; assay type: cell-based, Candida auris
[4] = test system: C. neoformans (ATCC 208821); assay: Checkerboard assay of NO donors with antifungals; assay type: cell-based, Cryptococcus neoformans
C. auris (MYA-5001) = assay type: cell-based, Candida auris
[5] = test system: C. neoformans (ATCC208821); assay type: cell-based, Cryptococcus neoformans
[6] = test system: MatTek EpiAirway tissue (AIR-100); assay: cells; assay type: cell-based; conditions: Homo sapiens, 24 h, read-out: IC50 (concentration needed to inhibit tissue viability by 50%)
[7] = phosphate-buffered saline 10 mM, pH 7.4, 37 °C
[8] = ATCC14053, Candida albicans ATCC 14053
[9] = ATCC18804, Candida albicans ATCC 18804
[10] = Cryptococcus neoformans ATCC MYA-4566
[11] = Cryptococcus neoformans ATCC MYA-4567
[12] = NO donor combined with 5-fluorocytosine
[13] = NO donor combined with amphotericin B
[14] = NO donor combined with butenafine
[15] = NO donor combined with caspofungin
[16] = NO donor combined with fluconazole
[17] = NO donor combined with miconazole

NCCN(CCN)/[N+]([O-])=N/O [DETA/NO, diethylenetriamine/NO]
[NO]t, total NO released over full duration ([1]; pH 7.4): 6.3 ± 0.6 µmol/mg
[NO]max, maximum instantaneous NO concentration [1, 7]: 735 ± 94 ppb mg^−1
td, duration of NO release [1, 7]: 107.6 ± 19.9 h
MIC (Candida albicans; [8]): 625 µg/mL (≈ 3830 µM)
NO dose at MIC (Candida albicans; [8]): 117 µg/mL
MIC (Candida albicans; [9]): 625 µg/mL (≈ 3830 µM)
NO dose at MIC (Candida albicans; [9]): 117 µg/mL
Selectivity Index (IC50 AIR-100 / MIC) (Candida albicans; C. albicans ATCC 14053): 77
Selectivity Index (IC50 AIR-100 / MIC) (Candida albicans; C. albicans ATCC 18804): 77
Selectivity Index (IC50 AIR-100 / MIC) (Candida albicans; C. albicans ATCC MYA-2876): 383
MIC (Candida albicans; Candida albicans ATCC MYA-2876): 125 µg/mL (≈ 766 µM)
NO dose at MIC (Candida albicans; Candida albicans ATCC MYA-2876): 23.5 µg/mL
Selectivity Index (IC50 AIR-100 / MIC) (Candida auris; C. auris ATCC MYA-5000): 77
Selectivity Index (IC50 AIR-100 / MIC) (Candida auris; C. auris ATCC MYA-5001): 1595
Selectivity Index (IC50 AIR-100 / MIC) (Candida auris; C. auris ATCC MYA-5003): 154
MIC (Candida auris; Candida auris ATCC MYA-5000): 625 µg/mL (≈ 3830 µM)
MIC (Candida auris; Candida auris ATCC MYA-5001): 30 µg/mL (≈ 184 µM)
MIC (Candida auris; Candida auris ATCC MYA-5003): 310 µg/mL (≈ 1900 µM)
NO dose at MIC (Candida auris; Candida auris ATCC MYA-5000): 117 µg/mL
NO dose at MIC (Candida auris; Candida auris ATCC MYA-5001): 5.65 µg/mL
NO dose at MIC (Candida auris; Candida auris ATCC MYA-5003): 58.4 µg/mL
Selectivity Index (IC50 AIR-100 / MIC) (Cryptococcus neoformans; C. neoformans ATCC 208821): 191
Selectivity Index (IC50 AIR-100 / MIC) (Cryptococcus neoformans; C. neoformans ATCC MYA-4566): 613
Selectivity Index (IC50 AIR-100 / MIC) (Cryptococcus neoformans; C. neoformans ATCC MYA-4567): 154
MIC (Cryptococcus neoformans; [10]): 78 µg/mL (≈ 478 µM)
MIC (Cryptococcus neoformans; [11]): 310 µg/mL (≈ 1900 µM)
MIC (Cryptococcus neoformans; ATCC208821, 72 h, Cryptococcus neoformans ATCC 208821): 250 µg/mL (≈ 1530 µM)
NO dose at MIC (Cryptococcus neoformans; ATCC208821, Cryptococcus neoformans ATCC 208821): 47 µg/mL
NO dose at MIC (Cryptococcus neoformans; [10]): 14.7 µg/mL
NO dose at MIC (Cryptococcus neoformans; [11]): 58.4 µg/mL
Selectivity Index (IC50 AIR-100 / MIC) ([2]; A. fumigatus ATCC 1022): 150
MIC ([2]; ATCC1022, Aspergillus fumigatus ATCC 1022 spores): 320 µg/mL (≈ 1960 µM)
NO dose at MIC ([2]; ATCC1022, Aspergillus fumigatus ATCC 1022 spores, calculated NO dose at MIC): 60.5 µg/mL
checkerboard classification [3, 12]: I (indifferent (I))
∑FIC [3, 12]: ≥ 1
checkerboard classification [3, 13]: I (indifferent (I))
∑FIC [3, 13]: ≥ 1
checkerboard classification [3, 14]: I (indifferent (I))
∑FIC [3, 14]: ≥ 1
checkerboard classification [3, 15]: I (indifferent (I))
∑FIC [3, 15]: ≥ 1
checkerboard classification [3, 16]: I (indifferent (I))
∑FIC [3, 16]: ≥ 1
checkerboard classification [3, 17]: S (Synergistic (S))
∑FIC [3, 17]: 0.375
checkerboard classification (C. auris (ATCC MYA-5001); [12]): I (indifferent (I))
∑FIC (C. auris (ATCC MYA-5001); [12]): ≥ 1
checkerboard classification (C. auris (ATCC MYA-5001); [13]): I (indifferent (I))
∑FIC (C. auris (ATCC MYA-5001); [13]): ≥ 1
checkerboard classification (C. auris (ATCC MYA-5001); [14]): I (indifferent (I))
∑FIC (C. auris (ATCC MYA-5001); [14]): ≥ 1
checkerboard classification (C. auris (ATCC MYA-5001); [15]): I (indifferent (I))
∑FIC (C. auris (ATCC MYA-5001); [15]): ≥ 1
checkerboard classification (C. auris (ATCC MYA-5001); [16]): I (indifferent (I))
∑FIC (C. auris (ATCC MYA-5001); [16]): ≥ 1
checkerboard classification (C. auris (ATCC MYA-5001); [17]): I (indifferent (I))
∑FIC (C. auris (ATCC MYA-5001); [17]): ≥ 1
checkerboard classification [4, 12]: I (indifferent (I))
∑FIC [4, 12]: ≥ 1
checkerboard classification [4, 13]: I (indifferent (I))
∑FIC [4, 13]: ≥ 1
checkerboard classification [4, 14]: A (additive (A))
∑FIC [4, 14]: 0.500
checkerboard classification [4, 15]: I (indifferent (I))
∑FIC [4, 15]: ≥ 1
checkerboard classification [4, 16]: I (indifferent (I))
∑FIC [4, 16]: ≥ 1
checkerboard classification [4, 17]: A (additive (A))
∑FIC [4, 17]: 0.562
change in MIC or MFCs after serial passaging (C. auris (MYA-5001)): no change
change in MIC or MFCs after serial passaging [5]: no change
IC50 [6]: 48000 µg/mL (≈ 294000 µM)
